Reference: patent US20230235084A1, “COMPOSITIONS AND METHODS FOR TARGETED PROTEIN STABILIZATION BY REDIRECTING ENDOGENOUS DEUBIQUITINASES” (THE TRUSTEES OF COLUMBIA UNIVERSITY IN THE CITY OF NEW YORK, priority 2020, published 2023)

Legend:
CFTR [1] = assay: Whole-cell patch clamp of CFTR currents in HEK293 cells; assay type: cell-based, human
Excerpt: A critical next step was to determine whether enDUB-U21-rescued mutant CFTR channels are functional. We focused on N1303K and 4326delTC to represent Class II and Class VI mutations, respectively. HEK293 cells expressing WT CFTR display robust forskolin-activated chloride currents that are blocked by CFTR inhibitor (FIGS. 3C and 3D), and not observed in untransfected cells (FIG. 3E). By contrast, cells expressing either N1303K or 4326delTC alone yielded no forskolin-induced currents (FIGS. 3F and 3G) consistent with their limited surface trafficking and status as disease-causing mutants.
For CFTR channel measurements, whole-cell recordings were carried out in HEK293 and FRT cells at room temperature. Internal solution contained (mM): 113 L-aspartic acid, 113 CsOH, 27 CsCl, 1 NaCl, 1 MgCl2, 1 EGTA, 10 TES, 3 MgATP (pH 7.2). External contained (in mM): 145 NaCl, 4 CsCl, 1 CaCl2, 1 MgCl2, 10 glucose, and 10 TES (pH 7.4). I-V curves were generated from a family of step depolarizations (-80 to +80 mV in 20 mV steps from a holding potential of -40 mV). CFTR currents were activated by perfusion with 10 µM forskolin. In experiments utilizing lumacaftor (3 µM), the drug was added for 24 hrs posttransfection and incubated at 37° C. Ivacaftor was used acutely at 5 µM concentration. Currents were sampled at 20 kHz and filtered at 7 kHz. Traces were acquired at a repetition interval of 10 s.

KCNQ1 = assay: Whole-cell patch clamp of KCNQ1 currents in CHO cells; assay type: cell-based, human
Experimental: Whole-cell patch clamp electrophysiology was used to determine functionality of enDUB-O1-rescued KCNQ1 channels.
Chinese hamster ovary (CHO) cells were obtained from ATCC and cultured at 37° C. in Kaighn’s Modified Ham’s F-12K (ATCC) supplemented with 8% FBS and 100 mg/mL of penicillin-streptomycin. CHO cells were transiently transfected with desired constructs in 35 mm tissue culture dishes—KCNQ1 (0.5 µg) and nano-P2A-CFP (0.5 µg) or enDUBO1-P2A-CFP (0.5 µg) using X-tremeGENE HP (1:2 DNA/reagent ratio) according to the manufacturers’ instructions (Roche).
For potassium channel measurements, whole-cell membrane currents were recorded at room temperature in CHO cells using an EPC-10 patch-clamp amplifier (HEKA Electronics) controlled by the PatchMaster software (HEKA). A coverslip with adherent CHO cells was placed on the glass bottom of a recording chamber (0.7-1 mL in volume) mounted on the stage of an inverted Nikon Eclipse Ti-U microscope. Micropipettes were fashioned from 1.5 mm thin-walled glass and fire-polished. […] Pipette resistance was typically 1.5 MΩ when filled with internal solution. I-V curves were generated from a family of step depolarizations (-40 to +100 mV in 10 mV steps from a holding potential of -80 mV). Currents were sampled at 20 kHz and filtered at 5 kHz. Traces were acquired at a repetition interval of 10 s.

BBS-CFTR-YFP = assay: Flow cytometry assay of CFTR surface density in HEK293 cells; assay type: cell-based, human
Excerpt: BBS-tagged YFP-CFTR was engineered to enable simultaneous assessment of total channel expression and surface density using flow cytometry, and probed the impact of six distinct mutations previously categorized as Class II (F508del, R560T, N1303K) or Class VI (Q1412X, 4279insA, 4326delTC) mutations, respectively (FIG. 3A). All six mutations markedly impaired channel surface density compared to WT CFTR (FIG. 3B, black bars). […] We utilized a second enDUB (enDUB-U21) that comprises the catalytic component of ubiquitin-specific protease USP21 (FIG. 3A), which removes all ubiquitin linkage types (Faesen et al. 2011).
Cell surface and total ion channel pools were assayed by flow cytometry in live, transfected HEK293 cells as previously described (Kanner et al. 2017; Kanner et al. 2018). Briefly, 48 hrs post-transfection, cells cultured in 12-well plates gently washed with ice cold PBS containing Ca^2+ and Mg^2+ (in mM: 0.9 CaCl2, 0.49 MgCl2, pH 7.4), and then incubated for 30 min in blocking medium (DMEM with 3% BSA) at 4° C. HEK293 cells were then incubated with 1 µM Alexa Fluor 647 conjugated α-bungarotoxin (BTX647; Life Technologies) in DMEM/3% BSA on a rocker at 4° C. for 1 hr, followed by washing three times with PBS (containing Ca^2+ and Mg^2+ ). […]

full-length CFTR = target: T1, full-length CFTR (Homo sapiens, UniProt P13569); assay: Flow cytometric FRET binding assay in HEK293 cells; conditions: Cerulean-nanobody donor, Venus-CFTR acceptor
T1 construct: expressed in transfected cells; host or cells: HEK293
T1 sequence (P13569 whole entry): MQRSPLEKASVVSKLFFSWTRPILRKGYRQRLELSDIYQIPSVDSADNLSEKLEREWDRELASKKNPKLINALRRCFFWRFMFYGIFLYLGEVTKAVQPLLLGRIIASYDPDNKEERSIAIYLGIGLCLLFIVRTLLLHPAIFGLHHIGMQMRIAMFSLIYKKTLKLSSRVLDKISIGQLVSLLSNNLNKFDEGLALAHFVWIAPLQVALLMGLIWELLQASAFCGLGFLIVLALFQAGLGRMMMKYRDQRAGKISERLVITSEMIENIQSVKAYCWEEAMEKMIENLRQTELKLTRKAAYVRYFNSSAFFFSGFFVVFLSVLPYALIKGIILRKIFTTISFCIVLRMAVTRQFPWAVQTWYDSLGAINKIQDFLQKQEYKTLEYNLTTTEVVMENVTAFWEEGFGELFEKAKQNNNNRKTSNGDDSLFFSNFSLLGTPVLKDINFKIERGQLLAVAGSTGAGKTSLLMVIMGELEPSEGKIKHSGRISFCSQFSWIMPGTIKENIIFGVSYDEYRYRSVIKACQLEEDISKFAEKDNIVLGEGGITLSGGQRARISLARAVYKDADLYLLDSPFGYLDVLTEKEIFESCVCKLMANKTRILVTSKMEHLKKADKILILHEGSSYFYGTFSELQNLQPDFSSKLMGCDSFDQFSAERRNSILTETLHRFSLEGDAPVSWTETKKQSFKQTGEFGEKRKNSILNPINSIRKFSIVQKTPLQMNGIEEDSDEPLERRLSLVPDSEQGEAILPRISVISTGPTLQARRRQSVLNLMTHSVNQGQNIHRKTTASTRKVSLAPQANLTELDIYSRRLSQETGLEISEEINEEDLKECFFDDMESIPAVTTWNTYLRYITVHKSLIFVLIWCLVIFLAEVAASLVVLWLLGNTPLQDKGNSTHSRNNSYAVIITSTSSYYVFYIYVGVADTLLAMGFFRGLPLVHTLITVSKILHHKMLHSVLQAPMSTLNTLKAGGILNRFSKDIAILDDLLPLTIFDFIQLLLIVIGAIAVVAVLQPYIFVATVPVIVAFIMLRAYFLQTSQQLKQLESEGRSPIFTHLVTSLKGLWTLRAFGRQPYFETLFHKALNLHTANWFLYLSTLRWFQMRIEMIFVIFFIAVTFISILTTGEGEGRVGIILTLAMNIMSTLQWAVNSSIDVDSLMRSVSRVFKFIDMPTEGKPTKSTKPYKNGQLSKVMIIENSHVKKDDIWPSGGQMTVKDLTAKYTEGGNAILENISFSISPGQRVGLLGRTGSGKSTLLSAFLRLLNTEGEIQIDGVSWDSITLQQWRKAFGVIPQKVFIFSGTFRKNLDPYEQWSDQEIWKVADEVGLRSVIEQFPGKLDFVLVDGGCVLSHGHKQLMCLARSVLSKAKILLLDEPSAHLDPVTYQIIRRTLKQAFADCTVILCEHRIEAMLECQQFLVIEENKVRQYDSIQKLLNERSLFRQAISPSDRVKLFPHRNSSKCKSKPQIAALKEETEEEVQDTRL
Excerpt: (§1) While GFP-targeted enDUBs provided critical proof-of-concept efficacy for the targeted deubiquitination approach in rescuing different trafficking-deficient recombinant mutant channels, a key next step was to develop nanobodies towards CFTR itself to enable targeting of endogenous channels. Accordingly, we used purified CFTR NBD1 domain (FIG. 4A) as bait to identify binders using a yeast nanobody library surface display approach (McMahon et al. 2018) (FIG. 4B). After several rounds of magnetic-activated cell sorting (MACS) and fluorescence-activated cell sorting (FACS) selection we isolated 14 unique nanobody binders with a range of affinities for NBD1 as reported by an on-yeast binding assay (FIG. 12A; Table 1). […] Binding of nb.E3h to full-length CFTR in cells was confirmed by a flow cytometric fluorescence resonance energy transfer (flow-FRET) assay (FIG. 4C).
FRET binding assays were performed via flow cytometry in live, transfected HEK293 cells as previously described (Lee et al. 2016). […] Cerulean (Cer), Venus (Ven), and FRET signals were analyzed using the following laser / filter set configurations: BV421 (Ex: 405 nm, Em: 450/50), FITC (Ex: 488 nm, Em: 525/50), and BV520 (Ex: 405 nm, Em: 525/50), respectively. […]

CFTR [2] = assay: YFP halide quenching assay in HEK293 cells; assay type: cell-based, human; conditions: HEK293, pilot screen of nanobodies
Excerpt: as §1
Target sequence in this assay (P13569 387-646 limits assumed): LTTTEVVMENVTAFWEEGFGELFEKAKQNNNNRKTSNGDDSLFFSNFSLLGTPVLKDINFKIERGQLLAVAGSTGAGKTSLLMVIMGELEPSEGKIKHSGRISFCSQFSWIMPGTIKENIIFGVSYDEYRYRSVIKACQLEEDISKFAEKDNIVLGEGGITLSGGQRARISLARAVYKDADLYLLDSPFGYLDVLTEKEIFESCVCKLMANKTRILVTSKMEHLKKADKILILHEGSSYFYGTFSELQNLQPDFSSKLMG
A YFP halide quenching plate-reader assay was adapted from previous work (Galietta et al. 2001). […] Baseline YFP readings (Ex: 510 nm, Em: 538 nm) were taken using a SpectraMax M5 plate-reader (Molecular Devices). An equal amount of 2× activation solution, containing iodide, was added to obtain a final concentration (70 mM Nal, 10 µM forskolin, 5 µM VX770), and a time series recording YFP fluorescence was taken every 2 s. […]

`CC(C)(C)c1cc(C(C)(C)C)c(NC(=O)c2c[nH]c3ccccc3c2=O)cc1O` [ivacaftor] was tested, and the “Forskolin-stimulated 4326delTC or N1303K currents after ivacaftor” value (CFTR [1]; enDUB-U21 co-expression + lumacaftor, ivacaftor 5 µM) was “further enhanced” and the “Forskolin-induced 4326delTC and N1303K currents after ivacaftor” value (CFTR [1]; nano-expressing HEK293 cells, lumacaftor pre-incubation, ivacaftor 5 µM) was “further elevated”.

In the case of `COc1ccc(-c2csc(NC(=O)[C@H]3CCCCN3S(=O)(=O)c3ccc(C)cc3)n2)cc1` [ML277, (R)-N-(4-(4-methoxyphenyl)thiazol-2-yl)-1-tosylpiperidine-2-carboxamide], the “enDUB-O1-rescued R591H current amplitude” value (KCNQ1; R591H + enDUB-O1, ML277 1 µM) is reported as “markedly increased enDUB-O1-rescued R591H current amplitude to beyond WT KCNQ1 levels” and the “R591H KCNQ1 currents” value (KCNQ1; R591H + nano, 1 µM) is reported as “modestly increased R591H currents”.

`Cc1ccc(NC(=O)C2(c3ccc4c(c3)OC(F)(F)O4)CC2)nc1-c1cccc(C(=O)O)c1` [lumacaftor] was tested, and the “F508del and R560T CFTR surface expression” value (BBS-CFTR-YFP; lumacaftor 24 hrs pre-incubation or enDUB co-expression) was “did not increase F508del and R560T surface expression”, the “Surface trafficking of the other four CFTR mutations (N1303K, Q1412X, 4279insA, 4326delTC)” value (BBS-CFTR-YFP; lumacaftor 24 hrs pre-incubation or enDUB co-expression (enDUB compared to lumacaftor)) was “improved trafficking of the remaining 4 mutations” and the “Forskolin-induced 4326delTC and N1303K currents” value (CFTR [1]; nano-expressing HEK293 cells, lumacaftor pre-incubation) was “relatively small”.

B1: nb.E3h: CFTR (NBD1) target nanobody clone, SEQ ID No: 25 (protein)
VHH: QVQLQESGGGLVQAGGSLRLSCAASGTISGSGSMGWYRQAPGKEREFVAAINVGSNTYYADSVKGRFTISRDNAKNTVYLQMNSLKPEDTAVYYCAVRFGYYYRHTYWGQGTQVTVSS
modifications: nanobody
For B1, the “Performance in patch clamp assay when converted to an enDUB” value (CFTR [1]; HEK293) was “superior performance”, the “Binding to full-length CFTR in cells (flow-FRET)” value (full-length CFTR) was “confirmed” and the “Performance in halide sensor assay when converted to an enDUB” value (CFTR [2]) was “superior performance”.
